System: NCI-H460 cells
Assay: Antiproliferative activity on NCI-H460 cell line (CellTiter-Glo)
Type: cell-based
Settings: Homo sapiens; NCI-H460 (lung cancer, high AKR1C3); 2 hours with drug, then 70 hours drug-free
Protocol: RPMI-1640 medium and penicillin/streptomycin antibiotics were purchased from Vicente, and fetal bovine serum was purchased from Biosera. CellTiter-Glo (Cell Viability Chemiluminescence Detection Reagent) reagent was purchased from Promega. The NCI-H460 cell line was purchased from Nanjing Kebai Biotechnology Co., Ltd. Nivo Multimode Plate Reader (PerkinElmer).
NCI-H460 cells (lung cancer) were seeded in a 96-well plate, 80 μL of cell suspension per well, which contained 4000 NCI-H460 cells. The cell plate was incubated overnight in a carbon dioxide incubator. The compound to be tested was diluted 5-fold to the ninth concentration with a multi-channel pipette, that is, the compound to be tested was diluted from 2 mM to 5.2 nM, and an experiment for the sample assayed in duplicate was set up. 78 μL of medium was added to the middle plate, and 2 μL of the gradient-diluted compound per well was transferred to the middle plate according to the corresponding position, then 20 μL per well was transferred to the cell plate after mixing. […] Another cell plate was prepared, and the signal value was read as the maximum value (Max value in the following equation) on the day of drug addition to participate in data analysis. […] The multimode plate reader was used for readings. […]. […]

SMILES: O=[N+]([O-])c1cc2c(cc1Oc1cccnc1F)C(OP(=O)(N1CC1)N1CC1)COC2 (centres unmarked) [Compound 1]
- IC50: 3.8 nM

SMILES: O=[N+]([O-])c1cc2c(cc1Oc1ccccc1F)C(OP(=O)(N1CC1)N1CC1)COC2 (centres unmarked) [Compound 2]
- IC50: 21.6 nM

Source: patent US12435101B2, “Isochroman compound” (Zhejiang Yangli Pharmaceutical Technology Co., Ltd., priority 2020, dated 2025)
